Experimental data reported in patent US20100298141A1, “SUBSTITUTED PYRIDINE N-OXIDE HERBICIDES” (E. I. DU PONT DE NEMOURS AND COMPANY, priority 2007, published 2010).

Tests used:
barnyardgrass = test: Test F preemergence test; assay type: in vivo, Echinochloa crus-galli; details: scale 0 to 100
Method in brief: (§1)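 Compound in a non-phytotoxic solvent blend with surfactant is applied preemergence to planted seeds or postemergence to sugarcane plants. Plants and controls stay in the greenhouse 14 to 21 days before visual comparison.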

common ragweed = test: Test F preemergence test; assay type: in vivo, Ambrosia elation; details: scale 0 to 100
Method in brief: as §1

Italian ryegrass = test: Test F preemergence test; assay type: in vivo, Lolium multiflorum; details: scale 0 to 100
Method in brief: as §1

johnsongrass = test: Test F preemergence test; assay type: in vivo, Sorghum halepense; details: scale 0 to 100
Method in brief: as §1

large crabgrass = test: Test F preemergence test; assay type: in vivo, Digitaria sanguinalis; details: scale 0 to 100
Method in brief: as §1

itchgrass = test: Test F preemergence test; assay type: in vivo, Rottboellia cochinchinensis; details: scale 0 to 100
Method in brief: as §1

annual bluegrass = test: Test F preemergence test; assay type: in vivo, Poa annua; details: scale 0 to 100
Method in brief: as §1

green foxtail = test: Test F preemergence test; assay type: in vivo, Setaria viridis; details: scale 0 to 100
Method in brief: as §1

southern sandbur = test: Test F preemergence test; assay type: in vivo, Cenchrus echinatus; details: scale 0 to 100
Method in brief: as §1

naked crabgrass = test: Test F preemergence test; assay type: in vivo, Digitaria nuda; details: scale 0 to 100
Method in brief: as §1

goosegrass = test: Test F preemergence test; assay type: in vivo, Eleusine indica; details: scale 0 to 100
Method in brief: as §1

common purslane = test: Test F preemergence test; assay type: in vivo, Portulaca oleracea; details: scale 0 to 100
Method in brief: as §1

field bindweed = test: Test F preemergence test; assay type: in vivo, Convolvulus arvensis; details: scale 0 to 100
Method in brief: as §1

purple nutsedge = test: Test F preemergence test; assay type: in vivo, Cyperus rotundus; details: scale 0 to 100
Method in brief: as §1

Russian thistle = test: Test C pre-/postemergence test; assay type: in vivo, Salsola kali; details: Preemergence; for Russian Thistle plant response rating: 62 g ai/ha, scale 0 to 100; for Plant response rating, Russian Thistle: 31 g ai/ha, scale 0 to 100 (0 no effect, 100 complete control)
From the text: Seeds of plant species selected from blackgrass (Alopecurus myosuroides), downy brome (Bromus tectorum), green foxtail (Setaria viridis), Italian ryegrass (Lolium multiflorum), wheat (Triticum aestivum), wild oat (Avena fatua), catchweed bedstraw (Galium aparine), Russian thistle (Salsola kali), […] (Cynodon dactylon), Surinam grass (Brachiaria decumbens), cocklebur (Xanthium strumarium), corn (Zea mays), crabgrass (Digitaria sanguinalis), woolly cupgrass (Eriochloa villosa), giant foxtail (Setaria faberii), Goosegrass (Eleusin indica), johnsongrass (Sorghum halepense), kochia (Kochia scoparia), lambsquarters (Chenopodium album), morningglory (Ipomoea coccinea), eastern black nightshade (Solanum ptycanthum), yellow nutsedge (Cyperus esculentus), pigweed (Amaranthus retroflexus), common ragweed (Ambrosia elation), soybean (Glycine max), common (oilseed) sunflower (Helianthus annuus), and velvetleaf (Abutilon theophrasti) were planted and treated preemergence with test chemicals formulated in a non-phytotoxic solvent mixture which included a surfactant. At the same time, plants selected from these crop and weed species and also winter barley (Hordeum vulgare), canarygrass (Phalaris minor), and chickweed (Stellaria media) were treated with postemergence applications of some of the test chemicals formulated in the same manner. Plants ranged in height from 2 to 18 cm (1- to 4-leaf stage) for postemergence treatments. […] At time of treatment, test pots were flooded to 3 cm above the soil surface, treated by application of test compounds directly to the paddy water, and then maintained at that water depth for the duration of the test. […] A dash (-) response means no test result.

pitted morningglory = test: Test F preemergence test; assay type: in vivo, Ipomoea lacunosa; details: scale 0 to 100
Method in brief: as §1

common groundsel = test: Test F preemergence test; assay type: in vivo, Senecio vulgaris; details: scale 0 to 100
Method in brief: as §1

## Cc1cc[n+]([O-])c(S(=O)(=O)Cc2c(C(F)(F)F)nn(C)c2Cl)c1 [Compound 19]
barnyardgrass; 62 g ai/ha, Preemergence
  Barnyardgrass plant response rating: 90
barnyardgrass; 125 g ai/ha, preemergence
  Barnyardgrass plant response rating: 98
barnyardgrass; Preemergence, 16 g ai/ha
  Plant response rating, Barnyardgrass: 70
barnyardgrass; Preemergence, 31 g ai/ha
  Plant response rating, Barnyardgrass: 80
Common ragweed; 62 g ai/ha, Preemergence
  Ragweed plant response rating: 50
Common ragweed; 125 g ai/ha, preemergence
  Ragweed plant response rating: 80
Common ragweed; Preemergence, 16 g ai/ha
  Plant response rating, Ragweed: 0
Common ragweed; Preemergence, 31 g ai/ha
  Plant response rating, Ragweed: 25
Italian ryegrass; 62 g ai/ha, Preemergence
  Ryegrass, Italian plant response rating: 50
Italian ryegrass; 125 g ai/ha, preemergence
  Ryegrass, Italian plant response rating: 65
Italian ryegrass; Preemergence, 16 g ai/ha
  Plant response rating, Ryegrass, Italian: 0
Italian ryegrass; Preemergence, 31 g ai/ha
  Plant response rating, Ryegrass, Italian: 10
johnsongrass; 62 g ai/ha, Preemergence
  Johnsongrass plant response rating: 90
johnsongrass; 125 g ai/ha, preemergence
  Johnsongrass plant response rating: 98
johnsongrass; Preemergence, 16 g ai/ha
  Plant response rating, Johnsongrass: 40
johnsongrass; Preemergence, 31 g ai/ha
  Plant response rating, Johnsongrass: 75
Large crabgrass; 62 g ai/ha, Preemergence
  Crabgrass, Large plant response rating: 80
Large crabgrass; 125 g ai/ha, preemergence
  Crabgrass, Large plant response rating: 95
Large crabgrass; Preemergence, 16 g ai/ha
  Plant response rating, Crabgrass, Large: 35
Large crabgrass; Preemergence, 31 g ai/ha
  Plant response rating, Crabgrass, Large: 50
itchgrass; 62 g ai/ha, Preemergence
  Itchgrass plant response rating: 25
itchgrass; 125 g ai/ha, preemergence
  Itchgrass plant response rating: 50
itchgrass; Preemergence, 16 g ai/ha
  Plant response rating, Itchgrass: 0
itchgrass; Preemergence, 31 g ai/ha
  Plant response rating, Itchgrass: 0
Annual bluegrass; 62 g ai/ha, Preemergence
  Bluegrass plant response rating: 0
Annual bluegrass; 125 g ai/ha, preemergence
  Bluegrass plant response rating: 95
Annual bluegrass; Preemergence, 16 g ai/ha
  Plant response rating, Bluegrass: 0
Annual bluegrass; Preemergence, 31 g ai/ha
  Plant response rating, Bluegrass: 0
Green foxtail; 62 g ai/ha, Preemergence
  Foxtail, Green plant response rating: 75
Green foxtail; 125 g ai/ha, preemergence
  Foxtail, Green plant response rating: 90
Green foxtail; Preemergence, 16 g ai/ha
  Plant response rating, Foxtail, Green: 0
Green foxtail; Preemergence, 31 g ai/ha
  Plant response rating, Foxtail, Green: 50
Southern sandbur; 62 g ai/ha, Preemergence
  Sandbur plant response rating: 90
Southern sandbur; 125 g ai/ha, preemergence
  Sandbur plant response rating: 100
Southern sandbur; Preemergence, 31 g ai/ha
  Plant response rating, Sandbur: 60
Naked crabgrass; 62 g ai/ha, Preemergence
  Crabgrass, Naked plant response rating: 100
Naked crabgrass; 125 g ai/ha, preemergence
  Crabgrass, Naked plant response rating: 100
Naked crabgrass; Preemergence, 16 g ai/ha
  Plant response rating, Crabgrass, Naked: 70
Naked crabgrass; Preemergence, 31 g ai/ha
  Plant response rating, Crabgrass, Naked: 70
goosegrass; 62 g ai/ha, Preemergence
  Goosegrass plant response rating: 90
goosegrass; 125 g ai/ha, preemergence
  Goosegrass plant response rating: 100
goosegrass; Preemergence, 16 g ai/ha
  Plant response rating, Goosegrass: 0
goosegrass; Preemergence, 31 g ai/ha
  Plant response rating, Goosegrass: 75
Common purslane; 62 g ai/ha, Preemergence
  Purslane plant response rating: 0
Common purslane; 125 g ai/ha, preemergence
  Purslane plant response rating: 0
Common purslane; Preemergence, 16 g ai/ha
  Plant response rating, Purslane: 0
Common purslane; Preemergence, 31 g ai/ha
  Plant response rating, Purslane: 0
Field bindweed; 62 g ai/ha, Preemergence
  Field Bindweed plant response rating: 0
Field bindweed; 125 g ai/ha, preemergence
  Field Bindweed plant response rating: 15
Field bindweed; Preemergence, 16 g ai/ha
  Plant response rating, Field Bindweed: 0
Field bindweed; Preemergence, 31 g ai/ha
  Plant response rating, Field Bindweed: 0
Purple nutsedge; 62 g ai/ha, Preemergence
  Purple Nutsedge plant response rating: 60
Purple nutsedge; 125 g ai/ha, preemergence
  Purple Nutsedge plant response rating: 70
Purple nutsedge; Preemergence, 16 g ai/ha
  Plant response rating, Purple Nutsedge: 0
Purple nutsedge; Preemergence, 31 g ai/ha
  Plant response rating, Purple Nutsedge: 0
Russian thistle
  Russian Thistle plant response rating: 100
  Plant response rating, Russian Thistle: 100
Pitted morningglory; 62 g ai/ha, Preemergence
  Morningglory plant response rating: 0
Pitted morningglory; 125 g ai/ha, preemergence
  Morningglory plant response rating: 0
Pitted morningglory; Preemergence, 16 g ai/ha
  Plant response rating, Morningglory: 0
Pitted morningglory; Preemergence, 31 g ai/ha
  Plant response rating, Morningglory: 0
Common groundsel; 62 g ai/ha, Preemergence
  Groundsel plant response rating: 15
Common groundsel; 125 g ai/ha, preemergence
  Groundsel plant response rating: 70
Common groundsel; Preemergence, 16 g ai/ha
  Plant response rating, Groundsel: 0
Common groundsel; Preemergence, 31 g ai/ha
  Plant response rating, Groundsel: 0

## Cc1cc[n+]([O-])c([S+]([O-])Cc2c(C(F)(F)F)nn(C)c2Cl)c1 (racemic) [Compound 20]
barnyardgrass; 8 g ai/ha, preemergence
  Plant response rating, Barnyardgrass: 0
barnyardgrass; 62 g ai/ha, Preemergence
  Barnyardgrass plant response rating: 90
barnyardgrass; Preemergence, 16 g ai/ha
  Plant response rating, Barnyardgrass: 40
barnyardgrass; Preemergence, 31 g ai/ha
  Plant response rating, Barnyardgrass: 80
Common ragweed; 8 g ai/ha, preemergence
  Plant response rating, Ragweed: 0
Common ragweed; 62 g ai/ha, Preemergence
  Ragweed plant response rating: 25
Common ragweed; Preemergence, 16 g ai/ha
  Plant response rating, Ragweed: 0
Common ragweed; Preemergence, 31 g ai/ha
  Plant response rating, Ragweed: 0
Italian ryegrass; 8 g ai/ha, preemergence
  Plant response rating, Ryegrass, Italian: 0
Italian ryegrass; 62 g ai/ha, Preemergence
  Ryegrass, Italian plant response rating: 65
Italian ryegrass; Preemergence, 16 g ai/ha
  Plant response rating, Ryegrass, Italian: 10
Italian ryegrass; Preemergence, 31 g ai/ha
  Plant response rating, Ryegrass, Italian: 35
johnsongrass; 8 g ai/ha, preemergence
  Plant response rating, Johnsongrass: 0
johnsongrass; 62 g ai/ha, Preemergence
  Johnsongrass plant response rating: 90
johnsongrass; Preemergence, 16 g ai/ha
  Plant response rating, Johnsongrass: 50
johnsongrass; Preemergence, 31 g ai/ha
  Plant response rating, Johnsongrass: 60
Large crabgrass; 8 g ai/ha, preemergence
  Plant response rating, Crabgrass, Large: 0
Large crabgrass; 62 g ai/ha, Preemergence
  Crabgrass, Large plant response rating: 80
Large crabgrass; Preemergence, 16 g ai/ha
  Plant response rating, Crabgrass, Large: 10
Large crabgrass; Preemergence, 31 g ai/ha
  Plant response rating, Crabgrass, Large: 70
itchgrass; 8 g ai/ha, preemergence
  Plant response rating, Itchgrass: 0
itchgrass; 62 g ai/ha, Preemergence
  Itchgrass plant response rating: 70
itchgrass; Preemergence, 16 g ai/ha
  Plant response rating, Itchgrass: 0
itchgrass; Preemergence, 31 g ai/ha
  Plant response rating, Itchgrass: 15
Annual bluegrass; 8 g ai/ha, preemergence
  Plant response rating, Bluegrass: 0
Annual bluegrass; 62 g ai/ha, Preemergence
  Bluegrass plant response rating: 40
Annual bluegrass; Preemergence, 16 g ai/ha
  Plant response rating, Bluegrass: 0
Annual bluegrass; Preemergence, 31 g ai/ha
  Plant response rating, Bluegrass: 0
Green foxtail; 8 g ai/ha, preemergence
  Plant response rating, Foxtail, Green: 0
Green foxtail; 62 g ai/ha, Preemergence
  Foxtail, Green plant response rating: 75
Green foxtail; Preemergence, 16 g ai/ha
  Plant response rating, Foxtail, Green: 10
Green foxtail; Preemergence, 31 g ai/ha
  Plant response rating, Foxtail, Green: 40
Southern sandbur; 8 g ai/ha, preemergence
  Plant response rating, Sandbur: 0
Southern sandbur; 16 g ai/ha, preemergence
  Plant response rating, Sandbur: 0
Southern sandbur; 62 g ai/ha, Preemergence
  Sandbur plant response rating: 75
Southern sandbur; Preemergence, 31 g ai/ha
  Plant response rating, Sandbur: 60
Naked crabgrass; 8 g ai/ha, preemergence
  Plant response rating, Crabgrass, Naked: 75
Naked crabgrass; 62 g ai/ha, Preemergence
  Crabgrass, Naked plant response rating: 95
Naked crabgrass; Preemergence, 16 g ai/ha
  Plant response rating, Crabgrass, Naked: 75
Naked crabgrass; Preemergence, 31 g ai/ha
  Plant response rating, Crabgrass, Naked: 80
goosegrass; 8 g ai/ha, preemergence
  Plant response rating, Goosegrass: 0
goosegrass; 62 g ai/ha, Preemergence
  Goosegrass plant response rating: 75
goosegrass; Preemergence, 16 g ai/ha
  Plant response rating, Goosegrass: 15
goosegrass; Preemergence, 31 g ai/ha
  Plant response rating, Goosegrass: 60
Common purslane; 8 g ai/ha, preemergence
  Plant response rating, Purslane: 0
Common purslane; 62 g ai/ha, Preemergence
  Purslane plant response rating: 25
Common purslane; Preemergence, 16 g ai/ha
  Plant response rating, Purslane: 15
Common purslane; Preemergence, 31 g ai/ha
  Plant response rating, Purslane: 15
Field bindweed; 8 g ai/ha, preemergence
  Plant response rating, Field Bindweed: 0
Field bindweed; 62 g ai/ha, Preemergence
  Field Bindweed plant response rating: 15
Field bindweed; Preemergence, 16 g ai/ha
  Plant response rating, Field Bindweed: 0
Field bindweed; Preemergence, 31 g ai/ha
  Plant response rating, Field Bindweed: 0
Purple nutsedge; 8 g ai/ha, preemergence
  Plant response rating, Purple Nutsedge: 0
Purple nutsedge; 62 g ai/ha, Preemergence
  Purple Nutsedge plant response rating: 25
Purple nutsedge; Preemergence, 16 g ai/ha
  Plant response rating, Purple Nutsedge: 0
Purple nutsedge; Preemergence, 31 g ai/ha
  Plant response rating, Purple Nutsedge: 0
Russian thistle
  Russian Thistle plant response rating: 100
  Plant response rating, Russian Thistle: 100
Pitted morningglory; 8 g ai/ha, preemergence
  Plant response rating, Morningglory: 0
Pitted morningglory; 62 g ai/ha, Preemergence
  Morningglory plant response rating: 40
Pitted morningglory; Preemergence, 16 g ai/ha
  Plant response rating, Morningglory: 0
Pitted morningglory; Preemergence, 31 g ai/ha
  Plant response rating, Morningglory: 15
Common groundsel; 8 g ai/ha, preemergence
  Plant response rating, Groundsel: 0
Common groundsel; 62 g ai/ha, Preemergence
  Groundsel plant response rating: 0
Common groundsel; Preemergence, 16 g ai/ha
  Plant response rating, Groundsel: 0
Common groundsel; Preemergence, 31 g ai/ha
  Plant response rating, Groundsel: 0
